Source: patent US6071954A, “(methylsulfonyl)phenyl-2-(5H)-furanones with oxygen link as COX-2 inhibitors” (Merk Frosst Canada, Inc., priority 1998, dated 2000)

Assays:
[1] = tested on: Rat Paw Edema; assay: Rat paw edema assay (carrageenan); format: in vivo, rat (male Sprague-Dawley); conditions: po, 1 hr before carrageenan, paw volume 3 hr later
Protocol: Male Sprague-Dawley rats (150-200 g) are fasted overnight and are given, po, either vehicle (1% methocel or 5% Tween 80) or a test compound. One hr later, a line is drawn using a permanent marker at the level above the ankle in one hind paw to define the area of the paw to be monitored. The paw volume (V0) is measured using a plethysmometer (Ugo-Basile, Italy) based on the principle of water displacement. The animals are then injected subplantarly with […] of 1% carrageenan solution in saline (FMC Corp, Maine) into the paw using an insulin syringe with a 25-gauge needle (i.e. […] carrageenan per paw). Three hr later, the paw volume (V3) is measured and the increases in paw volume (V3 -V0) are calculated. The animals are sacrificed by CO2 asphyxiation and the absence or presence of stomach lesions scored. Data is compared with the vehicle-control values and percent inhibition calculated. All treatment groups are coded to eliminate observer bias.

[2] = target: T1, COX-2 (Homo sapiens, UniProt P35354); assay: Whole cell assay for COX-2 using CHO transfected cell lines (CHO[hCOX-2]); format: cell-based; design: expressed in transfected cells; CHO[hCOX-2]; conditions: CHO[hCOX-2] cells, PGE2 synthesis in response to arachidonic acid
T1 sequence (P35354 18-604): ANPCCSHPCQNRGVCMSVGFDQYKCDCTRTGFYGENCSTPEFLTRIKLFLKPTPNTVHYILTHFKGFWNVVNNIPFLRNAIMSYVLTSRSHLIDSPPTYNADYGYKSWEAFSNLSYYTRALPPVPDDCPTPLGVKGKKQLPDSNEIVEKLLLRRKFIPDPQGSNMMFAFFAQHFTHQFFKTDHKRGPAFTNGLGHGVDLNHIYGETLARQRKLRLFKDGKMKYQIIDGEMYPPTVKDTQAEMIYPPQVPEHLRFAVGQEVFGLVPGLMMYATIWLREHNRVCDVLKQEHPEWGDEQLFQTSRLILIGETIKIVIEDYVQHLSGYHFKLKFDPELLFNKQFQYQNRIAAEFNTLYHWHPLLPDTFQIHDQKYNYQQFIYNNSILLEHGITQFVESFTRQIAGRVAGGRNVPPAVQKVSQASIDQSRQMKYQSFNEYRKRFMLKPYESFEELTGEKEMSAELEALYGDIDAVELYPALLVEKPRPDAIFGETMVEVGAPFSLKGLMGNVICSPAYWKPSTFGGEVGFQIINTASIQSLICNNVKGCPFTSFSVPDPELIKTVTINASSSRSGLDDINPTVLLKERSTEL
Protocol: Compounds are tested as inhibitors of cyclooxygenase activity in whole cell cyclooxygenase assays. These assays measure prostaglandin E2 synthesis in response to arachidonic acid, using a radioimmunoassay. Cells used for these assays are chinese hamster ovary (CHO) cell lines which have been stably transfected with an eukaryotic expression vector […] containing either the human Cox-1 or Cox-2 CDNA's. U937 cell microsomes are also used to measure Cox-1 activity.
Chinese hamster ovary (CHO) cell lines which have been stably transfected with an eukaryotic expression vector pCDNAIII containing either the human COX-1 or COX-2 cDNA's are used for the assay. These cell lines are referred to as CHO [hCOX-1] and CHO [hCOX-2], respectively. […] Drugs to be tested are dissolved in DMSO to 66.7-fold the highest test drug concentration. […] Cells (0.3×10^6 cells in 200 μl) are preincubated with 3 μl of the test drug or DMSO vehicle for 15 min at 37° C.
In the assay, inhibition is determined by measuring the amount of prostaglandin E2 (PGE2) synthesized in the presence of arachidonic acid, cyclooxygenase-1 or cyclooxygenase-2 and a putative inhibitor.

[3] = target: T1, COX-2; assay: Human whole blood assay, COX-2 (LPS-induced PGE2 production); format: cell-based; design: incubation of human whole blood with LPS, which induces COX-2; endogenous in cells; host or cells: fresh heparinized whole blood of human volunteers, LPS-stimulated; conditions: LPS-induced PGE2, 24 hours at 37° C, read-out: COX-2 (IC50) HWB
Description: As well, platelets in whole blood contain a large amount of the COX-1 enzyme. Immediately following blood clotting, platelets are activated through a thrombin-mediated mechanism. This reaction results in the production of thromboxane B2 (TxB2) via activation of COX-1. Thus, the effect of test compounds on TxB2 levels following blood clotting can be examined and used as an index for COX-1 activity. Therefore, the degree of selectivity by the test compound can be determined by measuring the levels of PGE2 after LPS induction (COX-2) and TxB2 following blood clotting (COX-1) in the same assay. A. COX-2 (LPS-induced PGE2 production) Fresh blood is collected in heparinized tubes by venipuncture from both male and female volunteers. The subjects have no apparent inflammatory conditions and have not taken any NSAIDs for at least 7 days prior to blood collection. Plasma is immediately obtained from a 2 mL blood aliquot to use as blank (basal levels of PGE2). […] The supernatant is obtained and is assayed for PGE2 using a radioimmunoassay kit (Amersham, RPA#530) after conversion of PGE2 to its methyl oximate derivative according to the manufacturer's procedure.

Row | IC50 [2] [µM] | IC50 [3] [µM] | Compound | ED50 [1] [mg/kg]
1 | – | – | CC1(C)OC(=O)C(OC(C(F)(F)F)C(F)(F)F)=C1c1ccc(S(C)(=O)=O)cc1 [Example 2, 5,5-Dimethyl-3-(1,1,1,3,3,3-hexafluoropropoxy)-4-(4-methylsulfonylphenyl)-5H-furan-2-one] | 1
2 | 0.6 | 0.9 | C[C@H](O)[C@@H](C)OC1=C(c2ccc(S(C)(=O)=O)cc2)C(C)(C)OC1=O (relative stereo) [Example 4] | –
3 | – | – | CC1(C)OC(=O)C(OC2CCC(F)(F)CC2)=C1c1ccc(S(C)(=O)=O)cc1 [Example 17] | 0.9
